Patent US20240182945A1, “PRODUCTS FOR REGULATION OF EUKARYOTIC AND MICROBIAL CELLS GROWTH” (priority 2021, published 2024)
Converted amounts (≈) assume the structure as drawn. Like-named read-outs stand apart in the source and are kept apart here.

Key:
Type in all cases: cell-based
S. aureus = experiment: Sensitivity of PP to antibiotics, standard serial microbroth-dilution method (Example 24); settings: for MIC: Staphylococcus aureus
[1] = test system: PP+MM within the biosample; experiment: Presence of bacterial growth in the wells supplemented with amoxicillin; design: key: “+” - presence of bacterial growth, antibiotic is ineffective; “−”- absence of bacterial growth, antibiotic is effective
Procedure: Next, biosamples were plated to the wells of 48 well plate filled with Columbia+Pept Meat Agar supplemented with Amoxicillin. We modulated a QID, BID and TID administration of amoxicillin on PP+MM within the biosample. The following assumptions were made.
Next we evaluated Presence of bacterial growth in the wells supplemented with amoxicillin.

[2] = test system: C. albicans, non-albicans Candida spp. Aspergillus spp. in oral swabs from patients with oral candidiasis; experiment: Signs of fungal growth on 12 well plate test system supplemented with antifungal antibiotics; settings: naked eye examination, samples resistant to the antibiotic
Procedure: Oral swabs (n=6) from patients with confirmed oral candidiasis caused by C. albicans, non-albicans Candida spp. Aspergillus spp., were dissolved with PBS and 0.1 uL were plated on 12 well plate test system filled with Mixed Medium 1 (see above), Mixed Medium 2 (Sabouraud agar+Potato Dextrose Agar+vitamins B12+B7) (MM2), Sabouraud agar (SA), Potato Dextrose Agar (PDA), Sabouraud's Heart Infusion (SABHI) agar. 11 wells were filled with media supplemented with antibiotics (taken at mean concentration of each antibiotic achieved in lungs at different timpoints post drug administration)—Nystatin, Amphotericin B, Clotrimazole, Fluconazole, Isavuconazole, Terbinafin, Posaconazole, Voriconazole, Anidulafungin, Caspofungin, Micafungin. One well was antibiotic free.
Plates was incubated at 30 C and the analysis of the presence/absence of microbial growth was monitored every 15 minutes from […] to 5 h, then hourly from 5 h to 8 h and then at 18 and 24 h post plating with a naked eye.
Three methods (algorithms) how to analyze fungal growth were used.
Method (Algorithm) #1. Lab technician, analyzed the appearance of fungal growth by comparing the signs of fungal growth in each well supplemented with antibiotic(s) at certain timepoint, with the signs of funal growth in the same well at previous time point(s).
Method (Algorithm)#2. Lab technician analyzed the appearance of fungal growth by comparing the signs of fungal growth in each well supplemented with antibiotic(s) with fungal growth in antibiotic-free control
Method (Algorithm) #3. Lab technician analyzed the absence of fungal growth in the wells in fixed time period of 3.5 h; 5 h and 24 h.

[3] = test system: bacteria of endotracheal aspirate, sputum, BAL, wound swab from patients with ventilator associated pneumonia; experiment: Signs of bacterial growth on multi-well agar test system supplemented with antibiotics (naked eye or microscopy)
Procedure: Endotracheal aspirate (n=3), sputum (n=3), BAL (n=2), wound swab (n=3) from patients with ventilator associated pneumonia were resuspended in PBS and 0.15 μL were plated on 24 well plate test system filled with Mixed medium (Columbia agar +Pepted Meat agar) (MM), Luria Broth (LB) agar, Pepted Meat agar (PMA), Columbia agar (CA), or Schaedler agar (SA).
Two wells were antibiotic free.
Biosamples were plated to the medium with a sterile swab with a slight pressure to the agar and making circular movements. Plates was incubated at 37 C and the analysis of the of microbial growth was monitored every 15 minutes from […] to 5 h, then hourly from 5 h to 8 h and then at 18 and 24 h post plating with a naked eye or with an AmScope microscope on 20× magnification with 12 mp camera.
Three methods (algorithms) how to analyze bacterial growth were used.
Method (Algorithm) #1. Lab technician, analyzed the appearance of bacterial growth by comparing the signs of bacterial growth in each well supplemented with antibiotic(s) at certain timepoint, with the signs of bacterial growth in the same well at previous time point(s).
Method (Algorithm)#2. Lab technician analyzed the appearance of bacterial growth by comparing the signs of bacterial growth in each well supplemented with antibiotic(s) with bacterial growth in antibiotic-free control
Method (Algorithm) #3. Lab technician analyzed the absence of bacterial growth in the wells in fixed time period of 3.0 h, 3.5 h; 4 h and 24 h.

[4] = Method (Algorithm) #1, MM1 medium
[5] = Method (Algorithm) #1, MM2 medium
[6] = Method (Algorithm) #1, PDA medium
[7] = Method (Algorithm) #1, SA (Sabouraud agar)
[8] = Method (Algorithm) #1, SABHI medium
[9] = Method (Algorithm) #2, MM1 medium
[10] = Method (Algorithm) #2, MM2 medium
[11] = Method (Algorithm) #2, PDA medium
[12] = Method (Algorithm) #2, SA (Sabouraud agar)
[13] = Method (Algorithm) #2, SABHI medium

CC1(C)S[C@@H]2[C@H](NC(=O)[C@H](N)c3ccc(O)cc3)C(=O)N2[C@H]1C(=O)O [Amoxicillin]
Sensitivity (CLSI interpretation) (S. aureus; Biosample 1, S. aureus): S | Sensitivity (CLSI interpretation) (S. aureus; Biosample 2, S. aureus): I | Sensitivity (CLSI interpretation) (S. aureus; Biosample 3, S. aureus): S | MIC (S. aureus; Biosample 1, S. aureus): 0.25 µg/mL (≈ 0.684 µM) | MIC (S. aureus; Biosample 2, S. aureus, read-out: MIC): 4 µg/mL (≈ 10.9 µM) | MIC (S. aureus; Biosample 3, S. aureus, read-out: MIC): 2 µg/mL (≈ 5.47 µM) | Presence of bacterial growth in the wells ([1]; Biosample 1 (PP S. aureus), C0-6 h): − | Presence of bacterial growth in the wells ([1]; Biosample 1 (PP S. aureus), C0-12 h): − | Presence of bacterial growth in the wells ([1]; Biosample 1 (PP S. aureus), C0-24 h): − | Presence of bacterial growth in the wells ([1]; Biosample 2 (PP S. aureus), C0-6 h): − | Presence of bacterial growth in the wells ([1]; Biosample 2 (PP S. aureus), C0-12 h): + | Presence of bacterial growth in the wells ([1]; Biosample 2 (PP S. aureus), C0-24 h): + | Presence of bacterial growth in the wells ([1]; Biosample 3 (PP S. aureus), C0-6 h): − | Presence of bacterial growth in the wells ([1]; Biosample 3 (PP S. aureus), C0-12 h): − | Presence of bacterial growth in the wells ([1]; Biosample 3 (PP S. aureus), C0-24 h): +

CN(C/C=C/C#CC(C)(C)C)Cc1cccc2ccccc12 [Terbinafin]
Mean hour at which fungal growth became visible on the wells supplemented with a certain antibiotic [2, 4]: 4.5 h | Mean hour at which fungal growth became visible on the wells supplemented with a certain antibiotic [2, 5]: 5 h | Mean hour at which fungal growth became visible on the wells supplemented with a certain antibiotic [2, 6]: 5 h | Mean hour at which fungal growth became visible on the wells supplemented with a certain antibiotic [2, 7]: 5 h | Mean hour at which fungal growth became visible on the wells supplemented with a certain antibiotic [2, 8]: 5 h | Mean hour at which fungal growth became visible on the wells supplemented with a certain antibiotic [2, 9]: 4.5 h | Mean hour at which fungal growth became visible on the wells supplemented with a certain antibiotic [2, 10]: 5.5 h | Mean hour at which fungal growth became visible on the wells supplemented with a certain antibiotic [2, 11]: 8 h | Mean hour at which fungal growth became visible on the wells supplemented with a certain antibiotic [2, 12]: 6.5 h | Mean hour at which fungal growth became visible on the wells supplemented with a certain antibiotic [2, 13]: 6.5 h

C[C@@H](c1ncncc1F)[C@](O)(Cn1cncn1)c1ccc(F)cc1F [Voriconazole]
Mean hour at which fungal growth became visible on the wells supplemented with a certain antibiotic [2, 4]: 4 h | Mean hour at which fungal growth became visible on the wells supplemented with a certain antibiotic [2, 5]: 4.5 h | Mean hour at which fungal growth became visible on the wells supplemented with a certain antibiotic [2, 6]: 5.5 h | Mean hour at which fungal growth became visible on the wells supplemented with a certain antibiotic [2, 7]: 4.5 h | Mean hour at which fungal growth became visible on the wells supplemented with a certain antibiotic [2, 8]: 5.5 h | Mean hour at which fungal growth became visible on the wells supplemented with a certain antibiotic [2, 9]: 4.5 h | Mean hour at which fungal growth became visible on the wells supplemented with a certain antibiotic [2, 10]: 4.5 h | Mean hour at which fungal growth became visible on the wells supplemented with a certain antibiotic [2, 11]: 6.5 h | Mean hour at which fungal growth became visible on the wells supplemented with a certain antibiotic [2, 12]: 8 h | Mean hour at which fungal growth became visible on the wells supplemented with a certain antibiotic [2, 13]: 7 h

Piperacillin-tazobactam
Mean hour at which bacterial growth became visible on the wells supplemented with a certain antibiotic ([3]; microscopy examination, Method (Algorithm) #1, CA medium): 3.5 h | Mean hour at which bacterial growth became visible on the wells supplemented with a certain antibiotic ([3]; microscopy examination, Method (Algorithm) #1, LB medium): 4 h | Mean hour at which bacterial growth became visible on the wells supplemented with a certain antibiotic ([3]; microscopy examination, Method (Algorithm) #1, MM medium): 3.5 h | Mean hour at which bacterial growth became visible on the wells supplemented with a certain antibiotic ([3]; microscopy examination, Method (Algorithm) #1, PMA medium): 3.5 h | Mean hour at which bacterial growth became visible on the wells supplemented with a certain antibiotic ([3]; microscopy examination, Method (Algorithm) #1, SA medium): 3.5 h | Mean hour at which bacterial growth became visible on the wells supplemented with a certain antibiotic ([3]; microscopy examination, Method (Algorithm) #2, CA medium): 3.5 h | Mean hour at which bacterial growth became visible on the wells supplemented with a certain antibiotic ([3]; microscopy examination, Method (Algorithm) #2, LB medium): 4 h | Mean hour at which bacterial growth became visible on the wells supplemented with a certain antibiotic ([3]; microscopy examination, Method (Algorithm) #2, MM medium): 4 h | Mean hour at which bacterial growth became visible on the wells supplemented with a certain antibiotic ([3]; microscopy examination, Method (Algorithm) #2, PMA medium): 4 h | Mean hour at which bacterial growth became visible on the wells supplemented with a certain antibiotic ([3]; microscopy examination, Method (Algorithm) #2, SA medium): 3.5 h | Mean hour at which bacterial growth became visible on the wells supplemented with a certain antibiotic ([3]; naked eye examination, Method (Algorithm) #1, CA medium, samples resistant to the antibiotic): 3.5 h | Mean hour at which bacterial growth became visible on the wells supplemented with a certain antibiotic ([3]; naked eye examination, Method (Algorithm) #1, LB medium, samples resistant to the antibiotic): 4 h | Mean hour at which bacterial growth became visible on the wells supplemented with a certain antibiotic ([3]; naked eye examination, Method (Algorithm) #1, MM medium, samples resistant to the antibiotic): 3.5 h | Mean hour at which bacterial growth became visible on the wells supplemented with a certain antibiotic ([3]; naked eye examination, Method (Algorithm) #1, PMA medium, samples resistant to the antibiotic): 3.5 h | Mean hour at which bacterial growth became visible on the wells supplemented with a certain antibiotic ([3]; naked eye examination, Method (Algorithm) #1, SA medium, samples resistant to the antibiotic): 4 h | Mean hour at which bacterial growth became visible on the wells supplemented with a certain antibiotic ([3]; naked eye examination, Method (Algorithm) #2, CA medium, samples resistant to the antibiotic): 5.5 h | Mean hour at which bacterial growth became visible on the wells supplemented with a certain antibiotic ([3]; naked eye examination, Method (Algorithm) #2, LB medium, samples resistant to the antibiotic): 5 h | Mean hour at which bacterial growth became visible on the wells supplemented with a certain antibiotic ([3]; naked eye examination, Method (Algorithm) #2, MM medium, samples resistant to the antibiotic): 4 h | Mean hour at which bacterial growth became visible on the wells supplemented with a certain antibiotic ([3]; naked eye examination, Method (Algorithm) #2, PMA medium, samples resistant to the antibiotic): 4 h | Mean hour at which bacterial growth became visible on the wells supplemented with a certain antibiotic ([3]; naked eye examination, Method (Algorithm) #2, SA medium, samples resistant to the antibiotic): 5.5 h
